The target in data set [1] is T1, SHBG (Homo sapiens, UniProt P04278).
T1 sequence (P04278 30-402): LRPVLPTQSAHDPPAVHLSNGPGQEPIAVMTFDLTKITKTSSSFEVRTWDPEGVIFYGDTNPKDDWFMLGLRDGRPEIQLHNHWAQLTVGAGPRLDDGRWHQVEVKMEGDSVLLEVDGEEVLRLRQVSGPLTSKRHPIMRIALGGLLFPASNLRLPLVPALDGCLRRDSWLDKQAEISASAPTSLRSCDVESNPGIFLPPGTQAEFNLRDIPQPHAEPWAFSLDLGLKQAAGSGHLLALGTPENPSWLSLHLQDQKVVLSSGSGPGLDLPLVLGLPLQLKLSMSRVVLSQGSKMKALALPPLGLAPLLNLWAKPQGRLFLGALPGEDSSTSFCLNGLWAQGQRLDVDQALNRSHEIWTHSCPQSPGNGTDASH
Conditions: cited from earlier work; for binding affinity for SHBG: Phillips 1990, Steroids.

The conditions of data set [2]: cited from earlier work; for unenhanced flux: without chemical enhancers.
The conditions of data set [3]: in vivo; cited from earlier work.
For data set [4] the following is noted: human, in vivo.
A short description of data set [5]: In vitro skin permeation of LNG from patches, Franz diffusion cells. The data set is classed as in vitro ADME, human. The conditions noted are these: comparison in words. As to the method: The objective of this study was to compare in vitro skin permeation of LNG through human cadaver skin from a patch containing both EE and LNG (Patch of column 4, Table 1) with a patch containing only LNG (patch in column 2, Table 1).
Only one (1) skin donor was used in these in vitro skin permeation experiments (split thickness dermatomed approximately at […] human cadaver skin). All in vitro skin permeation studies were conducted using the PermeGear Membrane Transport System. Each Membrane Transport System consisted of vertical, jacketed (37° C.±0.5° C.) Franz diffusion cells with magnetic stirrer, 2 chamber (donor and receiver) sets of 6 units, orifice diameter 15 mm, effective permeation surface area 1.767 cm^2. Each cell was prepared by cutting the skin samples into approximately 3 cm×3 cm squares and mounting them on the top of the receiver compartment of Franz cells. Patches to be tested were placed on the stratum corneum surface of the skin and the donor and receiver compartments of the diffusion cells were then clamped in place. The receiver compartment was then filled with approximately 12 mL of receiver medium/receptor solution (Phosphate Buffered Saline (PBS)+0.5% Oleth 20+0.008% Gentamicin, pH 7.3), tilting to make sure the receiver medium and the skin/solution interface was free of any air bubbles.
Skin flux studies were run for a period of 168 hours. […]

Data set [6] deals with T1, SHBG. Conditions: cited from earlier work.
A short description of data set [7]: Second clinical trial of LNG plus EE transdermal patches (Example 2): serum/plasma LNG and EE levels. Conditions: clinical data of LNG plus EE patches versus LNG-only patches.
[8] abbreviates: Victor et al., J. Clin. Endocrinol. Metab. 43: 244.

The values below come from US20240156838A1, “Contraceptive Compositions and Methods for Improved Efficacy and Modulation of Side Effects” (Agile Therapeutics, Inc., priority 2015, published 2024).

Where two headings read alike, the source gives them in different places.

Consider `C#C[C@]1(O)CC[C@H]2[C@@H]3CCC4=CCCC[C@@H]4[C@H]3C(=C)C[C@@]21CC` [desogestrel], for which the “binding affinity to SHBG” value is “lesser binding affinity” at SHBG [1] (Pollow 1989, Contraception) and “lesser binding affinity” at SHBG [1] (Schoultz 1989). `C#C[C@]1(OC(C)=O)CC[C@H]2[C@@H]3CCC4=CC(=O)CC[C@@H]4[C@H]3CC[C@@]21C` [Norethindrone Acetate]: the flux in data set [2] (U.S. Pat. No. 5,474,783, enhancement not stated) was 0.05 micrograms/cm^2/hr. As for medroxyprogesterone, the “binding affinity to SHBG” value at SHBG [1] (setting [8]) is reported as “do not have high binding affinity”. As to `C#C[C@]1(O)C=C[C@H]2[C@@H]3CCC4=CC(=O)CC[C@@H]4[C@H]3CC[C@@]21CC` [gestodene], the “binding affinity for SHBG” value at SHBG [1] is reported as “reasonably high affinities”. In addition, the “binding affinity to SHBG” value on SHBG [1] (Pollow 1989, Contraception) was “high binding affinity”. Take `C#C[C@]1(O)CC[C@H]2[C@@H]3CCC4=CC(=O)CC[C@@H]4[C@H]3C(=C)C[C@@]21CC` [3-keto desogestrel]: the “binding affinity for SHBG” value at SHBG [1] is “reasonably high affinities”. Also, the “binding affinity to SHBG” value at SHBG [1] (Pollow 1989, Contraception) is given as “high binding affinity”. On to `CC(=O)O[C@]1(C(C)=O)CC[C@H]2[C@@H]3C[C@H](C)C4=CC(=O)CC[C@]4(C)[C@H]3CC[C@@]21C` [medroxyprogesterone acetate], for which the “binding affinity to SHBG” value is given as “lesser binding affinity” at SHBG [1] (Pollow 1989, Contraception) and “lesser binding affinity” on SHBG [1] (Schoultz 1989). In the case of `C=C1C[C@H]2[C@@H]3CCC4=CC(=O)CC[C@@H]4[C@H]3CC[C@]2(C)[C@@]1(OC(C)=O)C(C)=O` [nesterone], in data set [2] (with chemical enhancers, from cited patents), the enhanced flux is reported as 0.01 micrograms/cm^2/hr. Moreover, the unenhanced flux in data set [2] (from cited patents) is 0.005 micrograms/cm^2/hr. On to `C[C@]12CC[C@@H]3c4ccc(O)cc4CC[C@H]3[C@@H]1CC[C@@H]2O` [17-beta estradiol, 17-beta-estradiol], for which the oral bioavailability result in data set [3] is listed as “less than 10%”. For `C#CC1(O)CC[C@H]2[C@@H]3CCC4=CC(=O)CC[C@@H]4[C@H]3CC[C@@]21CC` (mixture of isomers) [dl-norgestrel], the “binding affinity to SHBG” value on SHBG [1] (setting [8]) is given as “higher affinity for SHBG than EE”.

As for `CC(=O)O[C@]1(C(C)=O)CC[C@H]2[C@@H]3C=C(Cl)C4=CC(=O)[C@@H]5C[C@@H]5[C@]4(C)[C@H]3CC[C@@]21C` [cyproterone acetate], at SHBG [1] (Pollow 1989, Contraception), the “binding affinity to SHBG” value is reported as “lesser binding affinity”. Regarding `C#C[C@]1(O)CC[C@H]2[C@@H]3CCC4=CC(=NO)CC[C@@H]4[C@H]3CC[C@@]21CC` (mixture of isomers) [17 deacetylnorgestimate], in data set [2] (from cited patents), the unenhanced flux is 0.1 micrograms/cm^2/hr. `C#C[C@]1(O)CC[C@H]2[C@@H]3CCC4=CC(=O)CC[C@@H]4[C@H]3CC[C@@]21CC` [LNG, levonorgestrel]: in data set [4], the “mean serum concentration of LNG, value extrapolated from the data collected” value is given as 1420 picograms per milliliter. Further, the “permeation/release of LNG through human skin, LNG-only versus LNG plus EE patches” value in data set [5] is on record as “not affected by the presence of EE”. With `CC(=O)[C@H]1CC[C@H]2[C@@H]3CCC4=CC(=O)CC[C@]4(C)[C@H]3CC[C@]12C` [progesterone], on SHBG [1] (Pollow 1989, Contraception), the “binding affinity to SHBG” value is given as “lesser binding affinity”. In addition, in data set [2] (from cited patents), the unenhanced flux is given as 0.14 micrograms/cm^2/hr. On to `C#C[C@]1(O)CC[C@H]2[C@@H]3CCC4=CC(=O)CC[C@@H]4[C@H]3CC[C@@]21C` [norethisterone], for which the “binding affinity to SHBG” value was “high binding affinity” on SHBG [1] (Schoultz 1989) and “higher affinity for SHBG than EE” at SHBG [1] (setting [8]). For the compound `CC(=O)O[C@]1(C(C)=O)CC[C@H]2[C@@H]3C=C(C)C4=CC(=O)CC[C@]4(C)[C@H]3CC[C@@]21C` [Megestrol acetate], the “binding affinity to SHBG” value on SHBG [1] (setting [8]) is “do not have high binding affinity”. In the case of `C#C[C@]1(O)CC[C@H]2[C@@H]3CCC4=CC(=O)CC[C@@H]4[C@H]3CC[C@@]21CC` [d-norgestrel], the “binding affinity to SHBG” value at SHBG [1] (setting [8]) was “higher affinity for SHBG than EE”. As for `C#C[C@]1(O)CC[C@H]2[C@@H]3CCC4=CCCC[C@@H]4[C@H]3CC[C@@]21C` [lynestrenol], the “binding affinity to SHBG” value on SHBG [1] (setting [8]) is recorded as “higher affinity for SHBG than EE”.

Turning to `C#C[C@]1(O)CC[C@H]2[C@@H]3CCc4cc(O)ccc4[C@H]3CC[C@@]21C` [EE, ethinyl estradiol], the 50% inhibitory concentration (IC50) at SHBG [6] (Hong et al., 2015, read-out: IC50 in testosterone displacement assay) is 790 nM; on SHBG [6] (according to Hong (2015), read-out: IC50 (affinity for SHBG)) it was 800 nM. Also, the “increase of LNG plasma levels by addition of EE relative to addition of an equivalent amount of LNG” value in data set [7] is on record as “about ten”. In addition, the oral bioavailability in data set [3] was 95%. Consider `C#C[C@]1(O)CC[C@H]2[C@@H]3CCC4=C(CCC(=O)C4)[C@H]3CC[C@@]21C` [norethynodrel], for which the “binding affinity to SHBG” value on SHBG [1] (setting [8]) is given as “higher affinity for SHBG than EE”. Turning to `C#C[C@]1(OC(C)=O)CC[C@H]2[C@@H]3CCC4=CC(=NO)CC[C@@H]4[C@H]3CC[C@@]21CC` (mixture of isomers) [norgestimate], at SHBG [1], the “binding affinity for SHBG” value is reported as “low binding affinity”. `C#C[C@]1(OC(C)=O)CC[C@H]2[C@@H]3CCC4=CC(=O)CC[C@@H]4[C@H]3CC[C@@]21C` [norethisterone acetate]: the unenhanced flux in data set [2] (from cited patents) is recorded as 0.05 micrograms/cm^2/hr.
